The values below are quoted from earlier work in US20250049666A1, “LIQUID COMPOSITION HAVING ENHANCED ANTIMICROBIAL ACTIVITY” (Conopco Inc., d/b/a UNILEVER, priority 2021, published 2025).

In general, pKa refers to the pH at which an ionisable group is half protonated. `CCCCCCCC(=O)O` [Caprylic acid]: the pKa is 4.72. With Capryloyl salicylic acid, the pKa entry was “acid (pKa = 3.83, log”. Moreover, for the setting “octanol/water”, the “log P” value was “P = 4.83)”.
